Measurements published in US20160220709A1, “PHOTOACOUSTIC IMAGING CONTRAST AGENT COMPOSITION” (Agency for Science, Technology and Research, priority 2013, published 2016).

Columns and labels:
[1] = In vitro photoacoustic (PA) signal measurement in polyethylene tubing, PA microscopy at 410 nm
Text: The microscopy system consists of laser pulse generation and delivery, PA signal reception, and image reconstruction and display. Laser pulses, 4 ns wide, were generated at a frequency of 10 Hz by using an optical parametric oscillator (Surlite OPO Plus, Continuum, USA). The laser was pumped by a frequency-tripled Nd:YAG Q-switched laser (Surlite II-10, Continuum, USA). The incident wavelength was set at 410 nm. The custom-made 50-MHz ultrasonic transducer (Acoustic Sensor, Taiwan) has a −6 dB fractional bandwidth of 57.5%, focal length of 9 mm, and a 6 mm active element, offering an axial resolution of 32 μm and a lateral resolution of 61 μm.
Laser energy was delivered using a 1-mm multimodal fiber. The fiber tip was coaxially aligned with a convex lens, an axicon, a plexiglass mirror, and an ultrasonic transducer on an optical bench, forming dark-field illumination that was confocal with the focal point of the ultrasonic transducer. The incident energy density on the sample surface was well within American National Standards Institute (ANSI) safety limits. The transducer was immersed in an acrylic water tank during the imaging process, and the hole at the bottom of the tank was sealed with a piece of […] thick polyethylene film. A thin layer of ultrasonic gel was applied as a PA conductive medium, which was then attached to the thin polyethylene film to ensure reliable coupling of the PA waves with the water tank. The PA signals received by the ultrasonic transducer were pre-amplified by a low-noise amplifier (noise FIG. 1.2 dB, gain 55 dB, AU-3A-0110, USA), cascaded to an ultrasonic receiver (5073 PR, Olympus, USA) and then digitized and sampled by a computer-based 14-bit analog to digital (A/D) card (CompuScope 14220, GaGe, USA) at a 200-MHz sampling rate for data storage.
Fluctuations in the laser energy were monitored with a photodiode (DET36A/M, Thorlabs, USA). The recorded photodiode signals were measured prior to the experiment to compensate for PA signal variations caused by laser-energy instability. The achievable penetration depth of the current PA microscopy system was 3 mm with approximately 18-dB SNR, where SNR is defined as the ratio of the signal peak value to the root-mean-square value of the noise. Three scan types can be provided by this system: A-line (i.e., one-dimensional images where the axis represents the imaging depth), B-scan (i.e., two-dimensional images where one axis is the lateral scanning distance and the other is the imaging depth), and C-scan (i.e., projection images from the three-dimensional images). The amplitude of the envelope-detected PA signals was used in the subsequent functional imaging analysis.
For both in vivo and in vitro imaging, the laser was pulsed with a pulse repetition rate of 10 Hz and coupled by a lens to an optical fiber to illuminate the ROI. A window at the bottom of the water container was sealed with an optically and ultrasonically transparent, disposable polyethylene film. After a commercially available ultrasound gel was applied to the brain for acoustic coupling, the brain was placed between the water container and the custom-made stereotaxic apparatus for imaging.
All the PA images in this study were acquired at 410 nm without any need for signal averaging, and yet the contrast quality of the PA images is high. […]

[2] = Water solubility; format: physicochemical
[3] = tested on: oral squamous cell carcinoma (OSCC) cells; test: Cell viability study (MTS / CCK8 cytotoxicity assay); format: cell-based; conditions: 0.01-30 μM, 24 h incubation
Method: Five thousand oral squamous cell carcinoma (OSCC) cells were seeded in a 96-well plate for 24 h before a solution of 2 in DMEM ([…]) with the indicated concentrations (0.01-30 μM) was introduced into each well. After incubation for 24 h, 10 μL of CCK8 (cell counting kit-8, Sigma-Aldrich) was added to each well. Cell absorbance was measured with a SpectraMax 384 Plus spectral analyser after 4 h, with 450 nm excitation.

[4] = In vivo PA imaging of rat cortical vasculature (superior sagittal sinus); conditions: 200 μL of 30 μM, retro-orbital injection, 20 min after administration, 410 nm
Text: Cortical vasculature of the rat was in vivo imaged at 32×61 μm resolution, with a designed 50-MHz dark-field confocal PA microscopy system (FIG. 4); the PA signal at λ410 was acquired. The SSS is the largest vein in the rodent brain cortex, and a selected section of it is the region-of-interest (ROI) in this study (FIG. 5B). There is strong clinical evidence that controlling cerebral venous blood flow is critically important for patients with severe traumatic brain injury as well as for patients undergoing cardiac surgery. Then, the SSS is a large central cerebral vein at cortical layer, and collects blood flow from both hemispheres before emptying into the internal jugular vein. That is, accurate measurements of blood flow changes in the SSS are thus very important.
Six male Wistar rats (NUS-CARE, Singapore), weighing 250-300 grams, were used. Animal experiments were conducted in accordance with guidelines from Institutional Animal Care and Use Committee (IACUC) at the National University of Singapore. The rats were fasted for 24 h prior to the imaging experiments, but were given water ad libitum. They were anesthetized with isoflurane (2 to 3% in 100% O2), mounted in a dorsal position over a custom-made acrylic stereotaxic holder, and the skin and muscle on the skull were removed to expose the bregma landmark. […]

Os3(CO)10(μ-H)μ-S(CH2)2COO^−Na^+ [compound 2]
concentration down to which PA signal of aqueous solution is adequate ([1]; aqueous solution, B-scan): 2.5 µM
water solubility [2]: water-soluble
effect on viability of cells (cytotoxicity) [3]: little effect on the viability of cells
clarity of brain vasculature in PA B-scan image compared to intrinsic optical contrast [4]: greater clarity

[C-]#[O+].[C-]#[O+].[C-]#[O+].[C-]#[O+].[C-]#[O+].[C-]#[O+].[C-]#[O+].[C-]#[O+].[C-]#[O+].[C-]#[O+].[C-]#[O+].[C-]#[O+].[Os].[Os].[Os] [1c, Os3(CO)12]
PA signal relative to that for single-walled carbon nanotubes (SWNT) [1]: 2.4 times higher
PA signal relative to that for 1a ([1]; water/ethanol (60:40, v/v)): about 1.5 times higher
PA signal relative to that for 1b ([1]; water/ethanol (60:40, v/v)): ~1.2 times higher
PA signal, rank among the three carbonyl clusters ([1]; water/ethanol (60:40, v/v)): highest PA signal
water solubility [2]: low water solubility
